Results as given in ChEMBL document CHEMBL4673351, “3α-Angeloyloxy-ent-kaur-16-en-19-oic Acid Isolated from Wedelia trilobata L. Alleviates Xylene-Induced Mouse Ear Edema and Inhibits NF-κB and MAPK Pathway in LPS-Stimulated Macrophages” (J Nat Prod, 2020).
Values belong to the compound of their own block, whether it stands above or below them. Active and inactive are the calls of the source. The calls are words filed in the database; no cut-off is given here.

Experiments:
[1] = tested on: Mus musculus; assay: Antiinflammatory activity in Kunming mouse assessed as reduction in xylene-induced cell infiltration in ear at 5 mg/kg administered topically pretreated for 30 mins followed by xylene-treatment and measured after 30 mins by H and E staining based microscopic method; assay type: functional, organism-based; conditions: time 60.0 min
[2] = tested on: Mus musculus; assay: Antiinflammatory activity in Kunming mouse assessed as reduction in xylene-induced vasodilation in ear at 5 mg/kg administered topically pretreated for 30 mins followed by xylene-treatment and measured after 30 mins by H and E staining based microscopic method; assay type: functional, organism-based; conditions: time 60.0 min
[3] = tested on: Mus musculus; assay: Antiinflammatory activity in Kunming mouse assessed as reduction in xylene-induced ear edema at 5 mg/kg administered topically pretreated for 30 mins followed by xylene-treatment and measured after 30 mins relative to control; assay type: functional; design: scale not given: the % may be the effect or the level left; conditions: time 60 min, 1 h
[4] = tested on: RAW264.7; assay: Inhibition of LPS-induced iNOS protein expression in mouse RAW264.7 cells up to 30 uM after 24 hrs by Western blot analysis; assay type: functional, cell-based; conditions: dose microM <=30, time 24.0 hrs
[5] = tested on: RAW264.7; assay: Inhibition of LPS-induced COX-2 mRNA expression in mouse RAW264.7 cells after 24 hrs by qRT-PCR analysis; assay type: functional, cell-based
[6] = tested on: RAW264.7; assay: Inhibition of LPS-induced iNOS mRNA expression in mouse RAW264.7 cells after 24 hrs by qRT-PCR analysis; assay type: functional, cell-based
[7] = (§1) Inhibition of NF-kappaB activation in mouse RaW264.7 cells assessed as reduction in LPS-induced PGE2 production after 24 hrs by ELISA; assay type: cell-based; conditions: RAW264.7, 24 h
[8] = tested on: RAW264.7; assay: as §1; assay type: cell-based
[9] = (§2) Inhibition of NF-kappaB activation in mouse RaW264.7 cells assessed as reduction in LPS-induced NO production after 24 hrs by Griess reagent based assay; assay type: cell-based; conditions: RAW264.7, 24 h
[10] = tested on: RAW264.7; assay: as §2; assay type: cell-based
[11] = tested on: RAW264.7; assay: Cytotoxicity against mouse RAW264.7 cells assessed as reduction in cell viability up to 60 uM after 24 hrs in presence of LPS by MTT assay; assay type: cell-based; conditions: raw264.7, 24 h
[12] = tested on: RAW264.7; assay: Cytotoxicity against mouse RAW264.7 cells assessed as reduction in cell viability up to 80 uM after 24 hrs by MTT assay; assay type: cell-based; conditions: raw264.7, 24 h
[13] = tested on: Mus musculus; assay: Antiinflammatory activity in Kunming mouse assessed as reduction in xylene-induced cell infiltration in ear at 50 mg/kg administered topically pretreated for 30 mins followed by xylene-treatment and measured after 30 mins by H and E staining based microscopic method; assay type: functional, organism-based; conditions: time 60.0 min
[14] = tested on: Mus musculus; assay: Antiinflammatory activity in Kunming mouse assessed as reduction in xylene-induced vasodilation in ear at 50 mg/kg administered topically pretreated for 30 mins followed by xylene-treatment and measured after 30 mins by H and E staining based microscopic method; assay type: functional, organism-based; conditions: time 60.0 min
[15] = tested on: Mus musculus; assay: Antiinflammatory activity in Kunming mouse assessed as reduction in xylene-induced ear edema at 50 mg/kg administered topically pretreated for 30 mins followed by xylene-treatment and measured after 30 mins relative to control; assay type: functional; design: scale not given: the % may be the effect or the level left; conditions: time 60 min, 1 h
[16] = tested on: Mus musculus; assay: Antiinflammatory activity in Kunming mouse assessed as reduction in xylene-induced ear edema at 25 mg/kg administered topically pretreated for 30 mins followed by xylene-treatment and measured after 30 mins relative to control; assay type: functional; design: scale not given: the % may be the effect or the level left; conditions: time 60 min, 1 h
[17] = tested on: RAW264.7; assay: Inhibition of NF-kappaB p65 nuclear translocation in LPS-induced mouse RaW264.7 cells at 20 uM after 24 hrs by DAPI staining based Immunofluorescence assay
[18] = tested on: RAW264.7; assay: Inhibition of NF-kappaB activation in mouse RaW264.7 cells assessed as reduction in LPS-induced TNF-alpha protein expression up to 30 uM after 24 hrs by Western blot analysis; assay type: cell-based; conditions: dose microM <=30, time 24.0 hrs
[19] = tested on: RAW264.7; assay: Inhibition of NF-kappaB activation in mouse RaW264.7 cells assessed as reduction in LPS-induced IL-6 protein expression up to 30 uM after 24 hrs by Western blot analysis; assay type: cell-based; conditions: dose microM <=30, time 24.0 hrs
[20] = tested on: RAW264.7; assay: Inhibition of NF-kappaB activation in mouse RaW264.7 cells assessed as reduction in LPS-induced TNFalpha mRNA expression after 24 hrs by qRT-PCR analysis; assay type: cell-based
[21] = tested on: RAW264.7; assay: Inhibition of NF-kappaB activation in mouse RaW264.7 cells assessed as reduction in LPS-induced IL-6 mRNA expression after 24 hrs by qRT-PCR analysis; assay type: cell-based
[22] = tested on: RAW264.7; assay: Inhibition of LPS-induced COX-2 protein expression in mouse RAW264.7 cells up to 30 uM after 24 hrs by Western blot analysis; assay type: functional, cell-based; conditions: dose microM <=30, time 24.0 hrs
[23] = tested on: RAW264.7; assay: Inhibition of LPS-induced ROS generation in mouse RAW264.7 cells up to 40 uM after 24 hrs by DCFH-DA staining based fluorescence assay; assay type: functional, cell-based; conditions: dose microM <=40, time 24.0 hrs
[24] = tested on: RAW264.7; assay: Inhibition of JNK phosphorylation in LPS-induced mouse RaW264.7 cells up to 30 uM after 24 hrs by Western blot analysis; conditions: dose microM <=30, time 24.0 hrs
[25] = target: MAP kinase p38 (Mus musculus) (UniProt P47811+O08911+Q9WUI1+Q9Z1B7); assay: Inhibition of p38 phosphorylation in LPS-induced mouse RaW264.7 cells up to 30 uM after 24 hrs by Western blot analysis; conditions: dose microM <=30, time 24.0 hrs
[26] = tested on: RAW264.7; assay: Inhibition of ERK phosphorylation in LPS-induced mouse RaW264.7 cells up to 30 uM after 24 hrs by Western blot analysis; conditions: dose microM <=30, time 24.0 hrs
[27] = tested on: RAW264.7; assay: Inhibition of NF-kappaB in mouse RaW264.7 cells assessed as reduction in LPS-induced IkappaBalpha degradation up to 30 uM after 24 hrs by Western blot analysis; assay type: cell-based; conditions: dose microM <=30, time 24.0 hrs
[28] = tested on: RAW264.7; assay: Inhibition of NF-kappaB phosphorylation in LPS-induced mouse RaW264.7 cells up to 30 uM after 24 hrs by Western blot analysis; conditions: dose microM <=30, time 24.0 hrs
[29] = tested on: RAW264.7; assay: Inhibition of IKKalpha/beta phosphorylation in LPS-induced mouse RaW264.7 cells up to 30 uM after 24 hrs by Western blot analysis; conditions: dose microM <=30, time 24.0 hrs
[30] = tested on: RAW264.7; assay: Inhibition of LPS-induced mitochondrial membrane potential loss in mouse RAW264.7 cells at 20 uM after 24 hrs by JC-1 staining based fluorescence microscopic method; assay type: functional, cell-based

SMILES: C[C@]12CCC(=O)C=C1CC[C@@H]1[C@@H]2[C@@H](O)C[C@@]2(C)[C@H]1CC[C@]2(O)C(=O)CO [HYDROCORTISONE]
Activity [1]: Active
Activity [2]: Active
Activity [3]: 55.53%

IC50 [7]: 20.3 µM
IC50 [9]: 20.3 µM
inhibition [25]: Active
SMILES: C=C1C[C@@]23CC[C@H]4[C@@](C)(CC[C@@H](OC(=O)/C(C)=C\C)[C@@]4(C)C(=O)O)[C@@H]2CC[C@@H]1C3
inhibition [4]: Active
inhibition [5]: Dose-dependent effect
inhibition [6]: Dose-dependent effect
inhibition [8]: Dose-dependent effect
inhibition [10]: Dose-dependent effect
Activity [11]: Non-Toxic
Activity [12]: Non-Toxic
Activity [13]: Active
Activity [14]: Active
Activity [15]: 51.57%
Activity [16]: 42.44%
inhibition [17]: Active
inhibition [18]: Active
inhibition [19]: Active
inhibition [20]: Dose-dependent effect
inhibition [21]: Dose-dependent effect
inhibition [22]: Active
inhibition [23]: Active
inhibition [24]: Active
inhibition [26]: Active
inhibition [27]: Active
inhibition [28]: Active
inhibition [29]: Active
inhibition [30]: Active

IC50 [9]: 50 µM
SMILES: C=C1C[C@@]23CC[C@H]4[C@@](C)(CCC[C@@]4(C)C(=O)O)[C@@H]2CC[C@@H]1C3 [KAURENOIC ACID]
